Test results taken from patent publication US11427544B2, “Histone deacetylase 6 inhibitors and use thereof” (TAIPEI MEDICAL UNIVERSITY, priority 2016, dated 2022).
Where a name gives a salt, the structure may show the parent alone.

What was measured:
[1] = tested on: A549 lung cancer cell line; experiment: Antiproliferative activity, A549; format: cell-based, human; conditions: Homo sapiens
Protocol: (§1) A study was conducted to evaluate the inhibitory activity of compounds of Formula (I) in inhibiting HDAC6, antiproliferative activity of test compounds in suppressing cancer cell growth, and selectivity of inhibiting HDAC6 over other HDAC isoforms.
(§2) The study was performed according to the protocol reported in Hsieh et al., Cell Death and Disease, 2014, April; 5:e1166.
(§3) Shown in Table 2 below are antiproliferative activities (measured by their half maximal concentration for inhibiting cell growth, i.e., GI50) of the test compounds against various cancer cell lines.

[2] = tested on: scopolamine-induced memory deficit; experiment: Elevated plus maze test, scopolamine-treated rats; format: in vivo; conditions: gavage twice daily for seven days; scopolamine 1.5 mg/kg i.p.
Protocol: An in vivo study was conducted to evaluate the efficacy of compounds of Formula (I) in improving memory deficits associated with Alzheimer's disease. Compound 12, Compound 28, suberanilohydroxamic acid (50 mg/kg) or vehicle was given to rats by gavage twice daily for seven days prior to behavioral experiments. On the day conducting a behavior assessment, rats in all groups except the control group were administered scopolamine (1.5 mg/kg) by intraperitoneal injection for 30 minutes before the assessment, then a water maze test or an elevated plus maze test was performed. […] The significant reduction in transfer latency time indicated improvement in memory.

[3] = tested on: PC-3 prostate cancer cell line; experiment: Antiproliferative activity, PC-3; format: cell-based, human; conditions: Homo sapiens
Protocol: as §1, §2, §3

[4] = tested on: Aβ42 production in pCAX APP 695 plasmid-transfected Neuro 2a and SH—SYSY cells; experiment: Aβ42 production in cell culture supernatants; format: cell-based; conditions: pCAX APP 695 transfected Neuro 2a and SH—SYSY cells; 0.1-10 μM, 24 hours
Protocol: (§4) A study was conducted to evaluate the effect of compounds of Formula (I) in amyloid precursor protein (APP) levels and Aβ42 production.
Moreover, neuro 2a or SH—SYSY cells (1×10^5) were transfected with pCAX APP 695 plasmid for 24 hours, followed by incubation with Compound 12 or Compound 28 (0.1-10 μM) for another 24 hours. Cell culture supernatants were assayed for Aβ42 production.

[5] = tested on: scopolamine-induced memory deficit; experiment: Water maze test, scopolamine-treated rats; format: in vivo; conditions: gavage twice daily for seven days; scopolamine 1.5 mg/kg i.p.
Protocol: An in vivo study was conducted to evaluate the efficacy of compounds of Formula (I) in improving memory deficits associated with Alzheimer's disease.
Compound 12, Compound 28, suberanilohydroxamic acid (50 mg/kg) or vehicle was given to rats by gavage twice daily for seven days prior to behavioral experiments. On the day conducting a behavior assessment, rats in all groups except the control group were administered scopolamine (1.5 mg/kg) by intraperitoneal injection for 30 minutes before the assessment, then a water maze test or an elevated plus maze test was performed.

[6] = Safety in ICR mice, 7-day intraperitoneal dosing; format: in vivo; conditions: 50, 100, and 200 mg/kg intraperitoneally once a day for 7 days, monitored another 7 days
Protocol: In addition, both Compounds 12 and 28 were studied to evaluate their safety in animals.
[…]. The animals were dosed intraperitoneally once a day for 7 days and then monitored for another 7 days. The animals were weighed daily for 1 week and then twice weekly.

HDAC1 = target: T1, HDAC1 (Homo sapiens, UniProt Q13547); experiment: Fluorogenic HDAC assay, HDAC1; format: biochemical; conditions: recombinant HDAC1; read-out: Enzyme IC50 HDAC1
T1 construct: purchased BPS Bioscience Corp
Excerpt: (§5) Of note, there are eighteen human HDACs. Eleven of them, designated as HDAC1-11, are zinc-dependent. Seven of them, designated as Sirt1-7, are NAD+-dependent.
(§6) Fluorogenic HDAC assay kits were used to assess the ability of HDAC inhibitors to inhibit deacetylation of lysine residues on a substrate by recombinant proteins HDAC1, 3, 4, 5, 6, 7, 8, 9 and Sirt1 according to the manufacturer's instructions (BPS Bioscience Corp., San Diego, Calif., USA).

[7] = tested on: HL-60 Acute promyelocytic leukemia; experiment: Tumor growth inhibition, HL-60 xenograft; format: in vivo, athymic nude mice; conditions: 50 mg/kg, qd, intraperitoneal
Protocol: (§7) An in vivo study was conducted to evaluate the efficacy of compounds of Formula (I) in suppressing tumor growth in multiple human cancer types.
(§8) Eight-week-old athymic nude mice were group-housed under conditions of constant photoperiod (12 h light/12 h dark at 21-23° C. and 60-85% humidity) with ad libitum access to sterilized food and water. All animal experiments followed ethical standards, and protocols were reviewed and approved by the Animal Use and Management Committee of National Taiwan University. Each mouse was inoculated subcutaneously with 1×10^6˜1×10^7 human cancer cells in a total volume of 0.1 mL serum-free medium containing 50% Matrigel (BD Biosciences). As tumors became established (˜100 mm^3), mice were randomized to various groups to be treated with pre-determined materials (n=6-8/group): (i) control group: 0.5% DMSO/0.5% Cremophor/90% D5W and (ii) treatment groups: Compounds 12 and 28 at pre-determined doses daily. Mice received treatment by intraperitoneal injection for the duration of the study. Tumors were measured weekly using calipers. Tumor size, in mm^3, was calculated according to the formula: Tumor volume=(w^2×l)/2, where w and 1 respectively represent the width and length (both in mm) of the tumor.

[8] = tested on: APP in pCAX APP 695 plasmid-transfected Neuro 2a cells; experiment: Amyloid precursor protein (APP) levels, Western blot; format: cell-based; conditions: pCAX APP 695 transfected neuro 2a cells; 0.1-10 μM, 24 hours
Protocol: as §4
Neuro 2a cells (1×10^6) in 6-well plates were transfected with pCAX APP 695 plasmid for 24 hours, then incubated for another 24 hours with Compound 12, Compound 28, or tubasatin A (0.1-10 μM). Cells were then harvested and cell lysates were prepared for Western blot analysis of the APP proteins.

[9] = tested on: BJAB Burkitt lymphoma-derived B-cell; experiment: Tumor growth inhibition, BJAB xenograft; format: in vivo, athymic nude mice; conditions: 50 mg/kg, qd, intraperitoneal
Protocol: as §7, §8

HDAC6 = target: T2, HDAC6 (Homo sapiens, UniProt Q9UBN7); experiment: Fluorogenic HDAC assay, HDAC6; format: biochemical
T2 construct: purchased BPS Bioscience Corp
T2 sequence (Q9UBN7 1-1215): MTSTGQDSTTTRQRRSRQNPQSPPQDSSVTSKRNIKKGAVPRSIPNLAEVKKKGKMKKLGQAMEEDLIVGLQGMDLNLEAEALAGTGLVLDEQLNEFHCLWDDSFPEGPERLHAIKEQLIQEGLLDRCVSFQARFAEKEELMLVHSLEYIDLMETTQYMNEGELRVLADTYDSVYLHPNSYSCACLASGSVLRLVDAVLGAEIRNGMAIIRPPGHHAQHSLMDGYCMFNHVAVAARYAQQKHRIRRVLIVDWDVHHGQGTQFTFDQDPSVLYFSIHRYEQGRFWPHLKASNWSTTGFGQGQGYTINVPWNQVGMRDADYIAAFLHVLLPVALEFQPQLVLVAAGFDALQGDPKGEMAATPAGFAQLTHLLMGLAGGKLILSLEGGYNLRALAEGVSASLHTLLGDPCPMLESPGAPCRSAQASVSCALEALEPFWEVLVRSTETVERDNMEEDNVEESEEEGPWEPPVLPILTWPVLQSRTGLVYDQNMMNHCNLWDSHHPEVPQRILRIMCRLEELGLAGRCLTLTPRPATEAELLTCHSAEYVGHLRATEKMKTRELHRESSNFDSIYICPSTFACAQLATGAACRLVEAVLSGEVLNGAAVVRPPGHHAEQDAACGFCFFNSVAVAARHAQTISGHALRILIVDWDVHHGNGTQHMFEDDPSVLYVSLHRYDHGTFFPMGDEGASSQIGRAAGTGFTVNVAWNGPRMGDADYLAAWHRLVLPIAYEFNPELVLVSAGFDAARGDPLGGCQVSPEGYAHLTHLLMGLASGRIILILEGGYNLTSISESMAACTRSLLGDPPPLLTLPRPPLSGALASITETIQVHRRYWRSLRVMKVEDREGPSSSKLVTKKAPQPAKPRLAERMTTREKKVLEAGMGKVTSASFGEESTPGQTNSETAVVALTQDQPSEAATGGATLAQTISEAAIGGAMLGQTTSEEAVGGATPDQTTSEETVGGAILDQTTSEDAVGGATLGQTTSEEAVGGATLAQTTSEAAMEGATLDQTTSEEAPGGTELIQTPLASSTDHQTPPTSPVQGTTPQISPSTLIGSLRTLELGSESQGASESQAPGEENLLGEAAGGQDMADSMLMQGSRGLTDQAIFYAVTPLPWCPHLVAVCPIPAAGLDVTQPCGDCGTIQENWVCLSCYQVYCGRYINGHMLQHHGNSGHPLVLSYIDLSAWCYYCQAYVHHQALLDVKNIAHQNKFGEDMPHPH
Excerpt: as §5, §6

[10] = tested on: T98 Glioblastoma cell line; experiment: Antiproliferative activity, T98; format: cell-based, human; conditions: T98; mesylate
Protocol: as §1, §2, §3

[11] = tested on: MDA-MB-231 Breast cancer cell line; experiment: Antiproliferative activity, MDA-MB-231; format: cell-based, human; conditions: MDA-MB-231; mesylate
Protocol: as §1, §2, §3

T1 sequence (Q13547 whole entry): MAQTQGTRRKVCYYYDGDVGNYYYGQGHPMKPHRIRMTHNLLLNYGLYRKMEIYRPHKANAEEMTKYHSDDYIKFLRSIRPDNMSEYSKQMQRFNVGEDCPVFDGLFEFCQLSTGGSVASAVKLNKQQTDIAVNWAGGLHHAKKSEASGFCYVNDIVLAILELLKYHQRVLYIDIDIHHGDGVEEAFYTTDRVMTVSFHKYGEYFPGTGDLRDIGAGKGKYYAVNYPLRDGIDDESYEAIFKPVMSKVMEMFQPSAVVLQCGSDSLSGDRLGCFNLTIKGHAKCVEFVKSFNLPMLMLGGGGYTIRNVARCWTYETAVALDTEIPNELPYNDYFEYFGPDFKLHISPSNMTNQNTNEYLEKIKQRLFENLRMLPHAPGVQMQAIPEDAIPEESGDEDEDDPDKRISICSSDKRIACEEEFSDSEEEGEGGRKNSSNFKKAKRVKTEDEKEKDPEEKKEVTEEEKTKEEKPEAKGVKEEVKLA

SMILES | GI50 [1] | transfer latency time (elevated plus maze) [2] | GI50 [3] | Aβ42 production [4] | time spent in the correct quadrant (water maze) [5] | tolerability [6] | IC50 (HDAC1) | % TGI [7] | APP expression [8] | % TGI [9] | IC50 (HDAC6) | GI50 [10] | GI50 [11]
O=C(NO)c1ccc(CNc2cccc3ncccc23)cc1 [Compound 12, N-hydroxy-4-((quinolin-5-ylamino)methyl)benzamide] | 5.53 ± 0.24 µM | significantly rescued scopolamine-mediated increase of transfer latency time | 3.28 ± 0.11 µM | decreased Aβ42 production | markedly reverse this effect | well tolerated | 2650 nM | 72.2% | markedly reduced the APP expression | 64.5% | 2.73 nM | – | –
O=C(NO)c1ccc(CNc2cccc3cccnc23)cc1 [Compound 28-mesylate, N-Hydroxy-4-(quinolin-8-ylaminomethyl)-benzamide mesylate] | – | – | – | – | – | – | – | – | – | – | – | 10.8 ± 0.83 µM | 1360 ± 250 nM
